According to patent US20140271534A1, “COMPOUNDS, COMPOSITIONS, AND METHODS FOR REPELLING AN INSECT FROM AN AREA, ARTICLE, AND/OR STRUCTURE” (BAYER CROPSCIENCE LP, priority 2013, published 2014):

Assays:
[1] = system: honeybees; experiment: honeybee repulsion experiment, feeding stations with 50% sucrose; format: in vivo; conditions: for repellency to honeybees at 24 hours: 2% by weight in 50% sucrose feeder
Description: FIG. 1 describes the feeding station arrangement (A and B) for the honeybee repulsion experiments described herein. As set forth in FIG. 1, panel (A) sets forth the bee cage positions on the left portion of panel (A) with the randomized feeding station positions on the right portion of panel (A). Panel (B) sets forth an alignment of the randomized feeding station positions with a distance of two meters between feeding stations. A total of eight feeding stations were evaluated at a ten meter distance in front of the respective bee hives. The feeding stations were placed two meters apart from one another.
Honeybees were trained to deep feeders (eight positions), each containing a 50% sucrose solution for one day. After the honeybees were trained to each feeder, the 50% sucrose feeder at randomized positions 1-8 was replaced with a shallow feeder containing a combination of repelling compounds and a 50% sucrose solution according to Table 3. In accordance with FIGS. 5 and 6, 2% by weight of Camphor oil (T4), Ajowan oil (T5), Camphor powder (T6), Rosemary oil (T7), and 2-Decanone (T8) in combination with a 50% sucrose treatment were added to feeders on day two.
Table 3 describes active agents evaluated for bee repulsion and their randomized feeding station positions. As described in Table 3, T1 (control), T2 (control), T3 (control), T4 (Camphor oil), T5 (Ajowan oil), T6 (Camphor powder), T7 (Rosemary oil), and T8 (2-Decanone).
FIG. 5 evaluates the number of bees visiting a respective feed station over a time interval. FIG. 6 sets forth the mean number of honeybees visiting feeding station over a period of four hours.

[2] = stability test of Poncho combined with Eugenol, clothianidin content by HPLC; format: physicochemical; conditions: in Poncho combined with Eugenol; up to 54° C. for seven days
Description: Table 4 describes a stability test with a combination of Eugenol and Poncho evaluated at room temperature, 40° C., and 54° C. at zero time, 3 days, and 7 days as confirmed by high performance liquid chromatography (HPLC).

[3] = stability test of Poncho 600 combined with α-terpineol, clothianidin content by HPLC; format: physicochemical; conditions: in Poncho combined with alpha-terpineol; up to 54° C. for eight days
Description: Table 5 describes a stability test with a combination of α-terpineol and Poncho 600 evaluated at room temperature, 40° C., and 54° C. at zero time, 2 days, and 8 days as confirmed by HPLC.

SMILES | repellency to honeybees at 24 hours [1] | repellency to honeybees at 24 hours ([1]; listed as 2-decanone) | repellency to honeybees over the full 4 hour assessment period ([1]; in 50% sucrose feeder, 4 hour assessment period) | chemical stability of clothianidin content [2] | chemical stability of clothianidin content [3]
CCCCCCCCC(C)=O [Compound 2-Decanone, 2-decanone] | exhibited repellency | still repellent | highly repellent | – | –
CN/C(=N\[N+](=O)[O-])NCc1cnc(Cl)s1 [clothianidin] | – | – | – | exhibited chemical stability | exhibited chemical stability
